{"source": "patent US20240361338A1", "about": "“DIAGNOSIS AND TREATMENT OF ECTOPIC ENDOMETRIOSIS” (FERRING B.V., priority 2021, published 2024)", "key": {"eutopic E-MSCs": {"system": "eutopic E-MSCs", "test": "Matrigel transwell invasion assay, eutopic E-MSCs", "format": "cell-based, human", "conditions": "100 nM, 48 h, vs untreated", "method": "FIG. 4: Quinagolide effect on EMSCs invasion. A and B: Representative micrographs (A) and quantification (B) of quinagolide effect (100 nM) on eutopic and ectopic (both ovarian and peritoneal) EMSCs invasion (original magnification: ×100). C: Concentration response effect of quinagolide treated ectopic EMSCs invasion. D and E: Quantification (D) and representative micrographs (E) (original magnification: ×100) of invasion assays performed on ectopic EMSCs (both ovarian and peritoneal), treated with 100 nM quinagolide (Q100 nM), 5 μM spiperone(S) or a combination of quinagolide and spiperone (S+Q100 nM). All invasion data are represented as mean±SD of at least three independent experiments, performed on different EMSC lines, and normalized to untreated cells (CTL). One-way ANova was performed: *=p<0.05 and **=p<0.001 vs CTL. Quinagolide powder (provided by Ferring Pharmaceuticals) was stored at 4° C. and resuspended in dimethylsulphoxide (DMSO) to a stock solution of 1 mM immediately before use. Spiperone powder (Sigma-Aldrich) was resuspended in water to a stock concentration of 1 mM and stored at −20° C. […] At least five pictures per transwell were acquired (original magnification: 100×), and the percentage of transwell area covered by invaded EMSCs was quantitatively measured by ImageJ software."}, "dopamine D2": {"molecular_target": "dopamine D2 (Homo sapiens, UniProt P14416)", "sequence (P14416 1-414 isoform P14416-2)": "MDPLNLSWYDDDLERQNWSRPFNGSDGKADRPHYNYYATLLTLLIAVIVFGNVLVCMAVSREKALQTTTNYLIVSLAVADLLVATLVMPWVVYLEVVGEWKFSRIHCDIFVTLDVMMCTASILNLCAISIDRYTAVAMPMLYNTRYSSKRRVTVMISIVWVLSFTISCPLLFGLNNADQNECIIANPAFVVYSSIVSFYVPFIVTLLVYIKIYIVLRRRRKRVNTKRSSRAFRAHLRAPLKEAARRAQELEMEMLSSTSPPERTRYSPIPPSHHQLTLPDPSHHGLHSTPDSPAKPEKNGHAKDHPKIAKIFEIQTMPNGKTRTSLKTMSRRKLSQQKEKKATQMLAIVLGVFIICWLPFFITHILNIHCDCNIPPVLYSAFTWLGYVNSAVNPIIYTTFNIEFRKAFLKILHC", "conditions": "Igbokwe et al, 2009; read-out: EC50 as D2 agonist; cited from earlier work"}, "HUVECs": {"system": "HUVECs", "test": "Annexin V apoptosis assay on HUVECs", "format": "cell-based, human", "conditions": "after 24 hours of quinagolide treatment, 10^-5 and 10^-7 M", "method": "FIG. 3: Quinagolide effect on EMSCs apoptosis and proliferation. A: Quinagolide concentration-response curve on ectopic EMSCs in both apoptosis (N=1) and proliferation (N=2) assays. B: Effect of two selected quinagolide doses (10^−5 and 10^−7M) on HUVECs (N=1) and ectopic E-MSCs (N=3) apoptosis and proliferation assays (N=2). Data are represented as mean±SD of the indicated number of experiments and normalized to untreated cells (Control). Annexin V assays were performed using the Muse™ Annexin V & Dead Cell Kit (Millipore), according to the manufacturer's recommendations. Briefly, 20×10^3 cells were plated and after 24 h treated with different concentrations of quinagolide. After 24, 48 and 72 hours, cells were detached and resuspended in Muse™ Annexin V & Dead Cell Kit and the percentage of apoptotic cells (Annexin V+) was measured. Data are expressed as the mean±standard deviation (SD) of the media of absorbance of at least three different experiments and normalized to control."}}, "data": [{"smiles": "CCCN1C[C@@H](NS(=O)(=O)N(CC)CC)C[C@@H]2Cc3c(O)cccc3C[C@H]21", "note": "[quinagolide, N,N-diethyl-N′-[(3S,4aS,10aR)-6-hydroxy-1-propyl-1,2,3,4,4a,5,10,10a-octahydrobenzo[g]quinolin-3-yl]sulfamide]", "values": [{"measurement": "invasion of eutopic E-MSC lines", "setting": "eutopic E-MSCs", "value": "significantly reduced"}, {"measurement": "EC50", "setting": "dopamine D2", "value": 0.058, "unit": "nM"}, {"measurement": "apoptosis of HUVEC cells", "setting": "HUVECs", "value": "did not show alteration"}]}]}
